In patent publication US10849881B2, “Octahydro-cyclobuta[1,2-c;3,4-c′]dipyrrol-2-yl” (Hoffmann-La Roche Inc., priority 2013, dated 2020):

Biological target: ATX (human His-tagged) (Homo sapiens (Human), UniProt Q13822)
Test: Human ATX enzyme inhibition assay (fluorescence quenching, MR121 substrate)
Format: biochemical
Conditions: 30 nM ATX, 1 μM MR121 substrate, 30° C., pH 8.0
In short: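 Fluorescence quenching assay with MR121/tryptophan-labelled substrate analogue in Tris-HCl buffer (140 mM NaCl, CaCl2, MgCl2, 0.01% Triton X-100, pH 8.0). Serially diluted compounds were preincubated 15 min at 30 °C with 30 nM ATX (final), then 1 µM substrate (final) added and incubated 15 min at 30 °C.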

Compound | IC50 [nM]
CCn1ccc2c(OC(C)C)cc(C(=O)N3C[C@@H]4[C@H]5CN(C(=O)c6ccc7[nH]nnc7c6)C[C@H]5[C@@H]4C3)cc21 [Example 1.074, [(3aS,3bS,6aR,6bR)-5-(1H-benzotriazole-5-carbonyl)-octahydro-cyclobuta[1,2-c;3,4-c′]dipyrrol-2-yl]-(1-ethyl-4-isopropoxy-1H-indol-6-yl)-methanone] | 5
O=C(c1ccc2[nH]nnc2c1)N1C[C@@H]2[C@H](C1)[C@H]1CN(C(=O)c3ccc(-c4ccc(Cl)cc4)c(=O)[nH]3)C[C@@H]21 [Example 1.075, 6-[(3aR,3bS,6aR,6bS)-5-(1H-benzotriazole-5-carbonyl)-octahydro-cyclobuta[1,2-c;3,4-c′]dipyrrole-2-carbonyl]-3-(4-chloro-phenyl)-1H-pyridin-2-one] | 20
CCOc1cc(C(=O)N2C[C@@H]3[C@H]4CN(C(=O)c5ccc6[nH]nnc6c5)C[C@H]4[C@@H]3C2)nc2cc(Cl)ccc12 [Example 1.076, [(3aR,3bS,6aR,6bS)-5-(1H-benzotriazole-5-carbonyl)-octahydro-cyclobuta [1,2-c;3,4-c′]dipyrrol-2-yl]-(7-chloro-4-ethoxy-quinolin-2-yl)-methanone] | 12.5
CCOc1cc(C(=O)N2C[C@@H]3[C@H](C2)[C@H]2CN(C(=O)[C@@H]4CCc5[nH]nnc5C4)C[C@@H]32)nc2cc(Cl)ccc12 [Example 1.077, (7-chloro-4-ethoxy-quinolin-2-yl)-[(3aR,3bS,6aR,6bS)-5-((R)-4,5,6,7-tetrahydro-1H-benzotriazole-5-carbonyl)-octahydro-cyclobuta[1,2-c;3,4-c′]dipyrrol-2-yl]methanone] | 7.5
CC(C)Oc1cc(C(=O)N2C[C@@H]3[C@H](C2)[C@H]2CN(C(=O)c4ccc5[nH]nnc5c4)C[C@@H]32)cc2c1CCCC2 [Example 1.078, [(3aS,3bS,6aR,6bR)-5-(1H-benzotriazole-5-carbonyl)-octahydro-cyclobuta[1,2-c;3,4-c′]dipyrrol-2-yl]-(4-isopropoxy-5,6,7,8-tetrahydro-naphthalen-2-yl)-methanone] | 3.5
COCCOc1cc(C(=O)N2C[C@@H]3[C@H]4CN(C(=O)c5ccc6[nH]nnc6c5)C[C@H]4[C@@H]3C2)nc2cc(C(F)(F)F)ccc12 [Example 1.079, (1H-benzotriazol-5-yl)-{(3aS,3bR,6aS,6bR)-5-[4-(2-methoxy-ethoxy)-7-trifluoromethyl-quinoline-2-carbonyl]-octahydro-cyclobuta[1,2-c;3,4-c′]dipyrrol-2-yl}-methanone] | 31.5
CCOc1cc(C(=O)N2C[C@@H]3[C@H]4CN(C(=O)c5ccc6[nH]nnc6c5)C[C@H]4[C@@H]3C2)nc2ccc(C(F)(F)F)cc12 [Example 1.080, (1H-benzotriazol-5-yl)-[(3aS,3bR,6aS,6bR)-5-(4-ethoxy-6-trifluoromethyl-quinoline-2-carbonyl)-octahydro-cyclobuta[1,2-c;3,4-c′]dipyrrol-2-yl]-methanone] | 2.5
CCOc1c(C(=O)N2C[C@@H]3[C@H]4CN(C(=O)c5ccc6[nH]nnc6c5)C[C@H]4[C@@H]3C2)ccc2c1ccn2CC [Example 1.081, [(3aS,3bS,6aR,6bR)-5-(1H-benzotriazole-5-carbonyl)-octahydro-cyclobuta[1,2-c;3,4-c′]dipyrrol-2-yl]-(4-ethoxy-1-ethyl-1H-indol-5-yl)-methanone] | 7.5
CCn1ccc2c(OCC(F)(F)F)c(C(=O)N3C[C@@H]4[C@H]5CN(C(=O)c6ccc7[nH]nnc7c6)C[C@H]5[C@@H]4C3)ccc21 [Example 1.082, [(3aS,3bS,6aR,6bR)-5-(1H-benzotriazole-5-carbonyl)-octahydro-cyclobuta[1,2-c;3,4-c′]dipyrrol-2-yl]-[1-ethyl-4-(2,2,2-trifluoro-ethoxy)-1H-indol-5-yl]-methanone] | 3
CCOc1cc(C(=O)N2C[C@@H]3[C@H]4CN(C(=O)c5ccc(S(N)(=O)=O)nc5)C[C@H]4[C@@H]3C2)nc2ccccc12 [Example 1.083, 5-[(3aS,3bR,6aS,6bR)-5-(4-ethoxy-quinoline-2-carbonyl)-octahydro-cyclobuta[1,2-c;3,4-c′]dipyrrole-2-carbonyl]-pyridine-2-sulfonic acid amide] | 154
O=C(c1ccc2[nH]nnc2c1)N1C[C@@H]2[C@H](C1)[C@H]1CN(C(=O)c3cc(OCC(F)(F)F)c4ccccc4n3)C[C@@H]21 [Example 1.084, (1H-benzotriazol-5-yl)-{(3aS,3bR,6aS,6bR)-5-[4-(2,2,2-trifluoro-ethoxy)-quinoline-2-carbonyl]-octahydro-cyclobuta[1,2-c;3,4-c′]dipyrrol-2-yl}-methanone] | 5
CCOc1cc(C(=O)N2C[C@@H]3[C@H]4CN(C(=O)c5ccc6[nH]nnc6c5)C[C@H]4[C@@H]3C2)cc2c1ccn2CC(F)(F)F [Example 1.085, (1H-benzotriazol-5-yl)-{(3aS,3bS,6aR,6bR)-5-[4-ethoxy-1-(2,2,2-trifluoro-ethyl)-1H-indole-6-carbonyl]-octahydro-cyclobuta[1,2-c;3,4-c′]dipyrrol-2-yl}-methanone] | 2.7
O=C(c1ccc2[nH]nnc2c1)N1C[C@@H]2[C@H](C1)[C@H]1CN(C(=O)c3cc(OCC4CC4)c(Cl)cn3)C[C@@H]21 [Example 1.086, (1H-benzotriazol-5-yl)-[(3aS,3bR,6aS,6bR)-5-(5-chloro-4-cyclopropylmethoxy-pyridine-2-carbonyl)-octahydro-cyclobuta[1,2-c;3,4-c′]dipyrrol-2-yl]-methanone] | 17
O=C(c1ccc2[nH]nnc2c1)N1C[C@@H]2[C@H](C1)[C@H]1CN(C(=O)c3ccc(C4CC4)c(OCC4CC4)n3)C[C@@H]21 [Example 1.087, (1H-benzotriazol-5-yl)-[(3aS,3bR,6aS,6bR)-5-(5-cyclopropyl-6-cyclopropylmethoxy-pyridine-2-carbonyl)-octahydro-cyclobuta[1,2-c;3,4-c′]dipyrrol-2-yl]-methanone] | 15.3
CCOc1cc(C(=O)N2C[C@@H]3[C@H]4CN(C(=O)c5ccc6[nH]nnc6c5)C[C@H]4[C@@H]3C2)nc2c1CCCC2 [Example 1.088] | 41.3
O=C(c1cccc(-c2ccc(Cl)cc2)c1)N1C[C@@H]2[C@H](C1)[C@H]1CN(C(=O)c3ccc4[nH]nnc4c3)C[C@@H]21 [Example 1.089, (1H-benzotriazol-5-yl)-[(3aS,3bS,6aR,6bR)-5-(4′-chloro-biphenyl-3-carbonyl)-octahydro-cyclobuta[1,2-c;3,4-c′]dipyrrol-2-yl]-methanone] | 20
CCOc1cc(C(=O)N2C[C@@H]3[C@H]4CN(C(=O)c5ccc6[nH]nnc6c5)C[C@H]4[C@@H]3C2)nc2cc(OC)ccc12 [Example 1.090, (1H-benzotriazol-5-yl)-[(3aS,3bR,6aS,6bR)-5-(4-ethoxy-7-methoxy-quinoline-2-carbonyl)-octahydro-cyclobuta[1,2-c;3,4-c′]dipyrrol-2-yl]-methanone] | 19
CCOc1cc(C(=O)N2C[C@@H]3[C@H](C2)[C@H]2CN(C(=O)c4ccc5[nH]nnc5n4)C[C@@H]32)nc2ccc(C(F)(F)F)cc12 [Example 1.091, [(3aS,3bS,6aR,6bR)-5-(4-ethoxy-6-trifluoromethyl-quinoline-2-carbonyl)-octahydro-cyclobuta[1,2-c;3,4-c′]dipyrrol-2-yl]-(1H-[1,2,3]triazolo[4,5-b]pyridin-5-yl)-methanone] | 17
CCOc1nc(C(=O)N2C[C@@H]3[C@H](C2)[C@H]2CN(C(=O)c4ccc5[nH]nnc5n4)C[C@@H]32)cc2ccccc12 [Example 1.092, [(3aS,3bS,6aR,6bR)-5-(1-ethoxy-isoquinoline-3-carbonyl)-octahydro-cyclobuta[1,2-c;3,4-c′]dipyrrol-2-yl]-(1H-[1,2,3]triazolo[4,5-b]pyridin-5-yl)-methanone] | 18
O=C(c1ccc2[nH]nnc2c1)N1C[C@@H]2[C@H](C1)[C@H]1CN(C(=O)c3ccc(C(F)(F)F)c(OCC4CC4)n3)C[C@@H]21 [Example 1.093, (1H-benzotriazol-5-yl)-[(3aS,3bR,6aS,6bR)-5-(6-cyclopropylmethoxy-5-trifluoromethyl-pyridine-2-carbonyl)-octahydro-cyclobuta[1,2-c;3,4-c′]dipyrrol-2-yl]-methanone] | 17
O=C(c1ccc2[nH]nnc2c1)N1C[C@@H]2[C@H](C1)[C@H]1CN(C(=O)c3cc(OCC(F)(F)F)c(C4CC4)cn3)C[C@@H]21 [Example 1.094, (1H-benzotriazol-5-yl)-{(3aS,3bR,6aS,6bR)-5-[5-cyclopropyl-4-(2,2,2-trifluoro-ethoxy)-pyridine-2-carbonyl]-octahydro-cyclobuta[1,2-c;3,4-c′]dipyrrol-2-yl}-methanone] | 77
O=C(c1ccc2[nH]nnc2c1)N1CC2C(C1)C1CN(C(=O)c3cc(OCC(F)(F)F)c(C4CC4)nn3)CC21 (stereo not drawn) [Example 1.095] | 32
CCOc1cc(C(=O)N2C[C@@H]3[C@H]4CN(C(=O)c5ccc6[nH]nnc6c5)C[C@H]4[C@@H]3C2)nc2ccc(Cl)cc12 [Example 1.096, [(3aR,3bS,6aR,6bS)-5-(1H-benzotriazole-5-carbonyl)-octahydro-cyclobuta[1,2-c;3,4-c′]dipyrrol-2-yl]-(6-chloro-4-ethoxy-quinolin-2-yl)-methanone] | 12
O=C(c1ccc2[nH]nnc2c1)N1C[C@@H]2[C@H](C1)[C@H]1CN(C(=O)c3ccc(C(F)(F)F)c(OCC(F)(F)F)n3)C[C@@H]21 [Example 1.097, (1H-benzotriazol-5-yl)-{(3aS,3bR,6aS,6bR)-5-[6-(2,2,2-trifluoro-ethoxy)-5-trifluoromethyl-pyridine-2-carbonyl]-octahydro-cyclobuta[1,2-c;3,4-c′]dipyrrol-2-yl}-methanone] | 25
